The text below walks through data of patent US20240262801A1, “COMPOUNDS HAVING 5-(2-FLUORO-6-HYDROXYPHENYL)-1,2,5-THIADIAZOLIDIN-3-ONE 1,1-DIOXIDE AS INHIBITORS OF PROTEIN KINASE PHOSPHATASE ENZYMES” (Ness Therapeutics, Inc., priority 2021, published 2024).

One experiment deals with T1, GST-tagged PTPN2 protein (Homo sapiens, UniProt P17706).
T1 construct: purchased ActiveMotif 31592
As to the kind of experiment: Primary assay of PTPN2 enzymatic activity inhibition (DiFMUP fluorescence). It is filed as biochemical. To be noted: DiFMUP substrate 2 μM, 60 min at RT. The essentials: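 Enzyme at 0.004 ng/μL final in 50 mM HEPES pH 7.2-7.4, 2 mM EDTA, 100 mM NaCl, BSA, 6 mM DTT; compounds preincubated 10 min at RT. DiFMUP added at 2 μM final, 60 min at RT, fluorescence read at ex 360/em 450 nm. IC50 calculated from % inhibition.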

The test system of experiment [1] is B16F10 mouse melanoma cells. Put plainly: Tumor cells B16F10 cellular growth IFNγ-induced inhibition assay (CellTiter-Glo). It is filed as cell-based. To be noted: for pIC50: B16-F10, 72 h, 3 days incubation; for inhibition at 100 µM: B16-F10, B16F10, 100 μM compound. The essentials: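 Cells were seeded at 500/well in DMEM + 10% FBS and allowed to adhere overnight at 37° C, 5% CO2. Compounds at 1× final were added via medium with or without IFNγ (5 ng/ml in the dilution medium). After 3 days, CellTiter-Glo luminescence gave % growth inhibition versus the DMSO/IFNγ control, from which IC50 was derived.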
(Cellular ATP, detected with luciferase, serves as a proxy for viable cell number.)

Where [2] appears, read: B16F10, + IFNγ, read-out: IC50 + IFNγ.
[3] abbreviates: B16F10, no IFNγ, read-out: IC50 no IFNγ.
Setting [4] is: + IFNγ, read-out: % Growth Inhibition at 100 μM + IFNγ.
Setting [5] is: no IFNγ, read-out: % Growth Inhibition at 100 μM no IFNγ.

pIC50: −log10 of the molar value. Where two headings read alike, the source gives them in different places.

T1 sequence (P17706 with tags, fused parts or gaps): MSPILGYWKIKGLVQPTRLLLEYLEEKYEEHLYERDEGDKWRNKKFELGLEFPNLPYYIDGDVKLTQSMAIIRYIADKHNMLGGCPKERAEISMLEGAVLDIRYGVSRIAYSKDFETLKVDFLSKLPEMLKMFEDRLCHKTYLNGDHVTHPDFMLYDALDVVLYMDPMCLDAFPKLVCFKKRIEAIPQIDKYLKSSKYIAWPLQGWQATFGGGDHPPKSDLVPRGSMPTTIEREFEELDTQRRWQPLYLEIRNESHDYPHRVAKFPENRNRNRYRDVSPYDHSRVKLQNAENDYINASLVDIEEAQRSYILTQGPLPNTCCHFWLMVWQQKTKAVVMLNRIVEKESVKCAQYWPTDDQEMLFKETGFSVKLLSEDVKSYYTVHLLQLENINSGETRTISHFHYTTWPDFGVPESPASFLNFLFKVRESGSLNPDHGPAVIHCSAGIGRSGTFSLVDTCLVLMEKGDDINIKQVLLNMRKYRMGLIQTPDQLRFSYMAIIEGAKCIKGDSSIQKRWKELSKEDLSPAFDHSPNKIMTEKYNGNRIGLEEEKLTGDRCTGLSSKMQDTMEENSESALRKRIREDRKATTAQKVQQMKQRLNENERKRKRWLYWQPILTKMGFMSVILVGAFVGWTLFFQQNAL

One may read the pIC50 as −log10 of the IC50, conventionally taken in molar units. In general, inhibition refers to how much of the control response was suppressed. Regarding `CC(C)CCN1CC(CNC(=O)Nc2cc(O)c(N3CC(=O)NS3(=O)=O)c(F)c2)C2(CCCCC2)C1` (stereo not shown) [Example 102, 1-[3-fluoro-5-hydroxy-4-(1,1,4-trioxo-1,2,5-thiadiazolidin-2-yl)phenyl]-3-[(2-isopentyl-2-azaspiro[4.5]decan-4-yl)methyl]urea], the pIC50 on GST-tagged PTPN2 protein was 8.00 to 8.30; in experiment [1] (setting [2]), at most 4.00; in experiment [1] (setting [3]), at most 4.00. Further, the inhibition at 100 µM in experiment [1] (setting [4]) and in experiment [1] (setting [5]) was 10 to 50% each time.

In the case of `O=C1CN(c2c(O)cc(NC(=O)N[C@H](CO)c3ccccc3)cc2F)S(=O)(=O)N1` [Example 103, 1-[3-fluoro-5-hydroxy-4-(1,1,4-trioxo-1,2,5-thiadiazolidin-2-yl)phenyl]-3-[(1S)-2-hydroxy-1-phenylethyl]urea], the pIC50 was 8.00 to 8.30 against GST-tagged PTPN2 protein, over 5.30 in experiment [1] (setting [2]) and at most 4.00 in experiment [1] (setting [3]). The inhibition at 100 µM in experiment [1] (setting [4]) is 75 to 100%; in experiment [1] (setting [5]), 10 to 50%.

For the compound `O=C1CN(c2c(O)cc(NC(=O)NC3CCCNC3)cc2F)S(=O)(=O)N1` (stereo not shown) [Example 104, 1-[3-fluoro-5-hydroxy-4-(1,1,4-trioxo-1,2,5-thiadiazolidin-2-yl)phenyl]-3-(3-piperidyl)urea], the pIC50 is over 8.30 against GST-tagged PTPN2 protein, 5.00 to 5.30 in experiment [1] (setting [2]) and at most 4.00 in experiment [1] (setting [3]). The inhibition at 100 µM in experiment [1] (setting [4]) lay within 75 to 100%; in experiment [1] (setting [5]), 10 to 50%.

As to `O=C1CN(c2c(O)cc(NC(=O)NC3CCCCC3O)cc2F)S(=O)(=O)N1` (stereo not shown) [Example 105, 1-[3-fluoro-5-hydroxy-4-(1,1,4-trioxo-1,2,5-thiadiazolidin-2-yl)phenyl]-3-(2-hydroxycyclohexyl)urea], the negative logarithm of the IC50 (pIC50) against GST-tagged PTPN2 protein is over 8.30; in experiment [1] (setting [2]), 5.00 to 5.30; in experiment [1] (setting [3]), at most 4.00. Also, the figures for the inhibition at 100 µM in experiment [1] (setting [4]) and in experiment [1] (setting [5]) were 75 to 100% and 10 to 50%, respectively.

Turning to `CC(C)(C)OC(=O)N1CCCC(NC(=O)Nc2cc(O)c(N3CC(=O)NS3(=O)=O)c(F)c2)C1` (stereo not shown) [Example 106, tert-butyl 3-[[3-fluoro-5-hydroxy-4-(1,1,4-trioxo-1,2,5-thiadiazolidin-2-yl)phenyl]carbamoylamino]piperidine-1-carboxylate], the pIC50 against GST-tagged PTPN2 protein was over 8.30; in experiment [1] (setting [2]) it was 4.00 to 4.30; in experiment [1] (setting [3]), at most 4.00. The results for the inhibition at 100 µM in experiment [1] (setting [4]) and in experiment [1] (setting [5]) were 50 to 75% and 10 to 50%, respectively.

As for `O=C1CN(c2c(O)cc(NC(=O)N[C@H]3CC[C@H](CO)CC3)cc2F)S(=O)(=O)N1` [Example 107, 1-[3-fluoro-5-hydroxy-4-(1,1,4-trioxo-1,2,5-thiadiazolidin-2-yl)phenyl]-3-[4-(hydroxymethyl)-cyclohexyl]urea], the figures for the pIC50 (against GST-tagged PTPN2 protein; in experiment [1] (setting [2]); in experiment [1] (setting [3])) were over 8.30, 5.00 to 5.30 and at most 4.00, respectively. Also, the inhibition at 100 µM in experiment [1] (setting [4]) is 50 to 75%; in experiment [1] (setting [5]) it was 10 to 50%.

`O=C1CN(c2c(O)cc(NC(=O)N[C@@H]3c4ccccc4C[C@@H]3O)cc2F)S(=O)(=O)N1` [Example 108, 1-[3-fluoro-5-hydroxy-4-(1,1,4-trioxo-1,2,5-thiadiazolidin-2-yl)phenyl]-3-[(1R,2S)-2-hydroxyindan-1-yl]urea]: the pIC50 on GST-tagged PTPN2 protein was 7.30 to 8.00; in experiment [1] (setting [2]), 4.30 to 5.00; in experiment [1] (setting [3]), at most 4.00. In addition, the inhibition at 100 µM in experiment [1] (setting [4]) lay within 50 to 75%; in experiment [1] (setting [5]), 10 to 50%.

Take `O=C1CN(c2c(O)cc(NC(=O)N[C@H](CO)Cc3ccccc3)cc2F)S(=O)(=O)N1` [Example 109, 1-[(1S)-1-benzyl-2-hydroxy-ethyl]-3-[3-fluoro-5-hydroxy-4-(1,1,4-trioxo-1,2,5-thiadiazolidin-2-yl)phenyl]urea]: the negative-log IC50 (pIC50) at GST-tagged PTPN2 protein was over 8.30; in experiment [1] (setting [2]), 4.30 to 5.00; in experiment [1] (setting [3]), at most 4.00. Besides, the inhibition at 100 µM was 50 to 75% in experiment [1] (setting [4]) and 10 to 50% in experiment [1] (setting [5]).

For the compound `CC(C)C[C@@H](CO)NC(=O)Nc1cc(O)c(N2CC(=O)NS2(=O)=O)c(F)c1` [Example 110, 1-[3-fluoro-5-hydroxy-4-(1,1,4-trioxo-1,2,5-thiadiazolidin-2-yl)phenyl]-3-[(1S)-1-(hydroxymethyl)-3-methyl-butyl]urea], the values for the negative logarithm of the IC50 (pIC50) (at GST-tagged PTPN2 protein; in experiment [1] (setting [2]); in experiment [1] (setting [3])) were 8.00 to 8.30, 4.30 to 5.00 and at most 4.00, respectively. The inhibition at 100 µM is 50 to 75% in experiment [1] (setting [4]) and 10 to 50% in experiment [1] (setting [5]).

Consider `O=C1CN(c2c(O)cc(NC(=O)NC34CC(CO)(C3)C4)cc2F)S(=O)(=O)N1` [Example 111, 1-[3-fluoro-5-hydroxy-4-(1,1,4-trioxo-1,2,5-thiadiazolidin-2-yl)phenyl]-3-[3-(hydroxymethyl)-1-bicyclo[1.1.1]pentanyl]urea], for which the negative logarithm of the IC50 (pIC50) against GST-tagged PTPN2 protein is over 8.30; in experiment [1] (setting [2]), 4.30 to 5.00; in experiment [1] (setting [3]), at most 4.00. Moreover, the results for the inhibition at 100 µM in experiment [1] (setting [4]) and in experiment [1] (setting [5]) were 75 to 100% and 10 to 50%, respectively.

For the compound `CC(C)CNC(=O)C12CC(NC(=O)Nc3cc(O)c(N4CC(=O)NS4(=O)=O)c(F)c3)(C1)C2` [Example 112, 3-[[3-fluoro-5-hydroxy-4-(1,1,4-trioxo-1,2,5-thiadiazolidin-2-yl)phenyl]carbamoylamino]-N-isobutyl-bicyclo[1.1.1]pentane-1-carboxamide], the results for the negative logarithm of the IC50 (pIC50) (on GST-tagged PTPN2 protein; in experiment [1] (setting [2]); in experiment [1] (setting [3])) were over 8.30, 4.00 to 4.30 and at most 4.00, respectively. Moreover, the inhibition at 100 µM in experiment [1] (setting [4]) and in experiment [1] (setting [5]) was 10 to 50% throughout.
